According to patent US12091426B2, “Bifunctional degraders of hematopoietic progenitor kinase and therapeutic uses thereof” (Nurix Therapeutics, Inc., priority 2021, dated 2024):

Molecular target: T1, HPK1 (Homo sapiens, UniProt Q92918)
T1 construct: A HiBiT tag was introduced by CRISPR on the N terminus of HPK1 in Jurkat cells; host or cells: Jurkat cells (ATCC TIB-152), monoclonal line with CRISPR knock-in of HiBiT at the endogenous HPK1 locus
Assay: HPK1 Cellular HiBit Degradation Assay
Format: cell-based
Conditions: HiBiT HPK1 Jurkat cells, 24 hrs; for DC50: concentration at which 50% of HPK1 was remaining, read-out: DC50 Category; for Dmax: Jurkat, maximum degradation vs DMSO vehicle control, read-out: Dmax Category
Method in brief: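 Jurkat cells with CRISPR knock-in N-terminal HiBiT-HPK1 were treated with CTMs (11-point, 3.16-fold, 10 uM to 0.1 nM final) for 24 hrs at 37° C. HiBiT lytic luminescence, with parental Jurkat as background and DMSO as 100%, gave % HPK1 remaining; four-parameter fit yielded DC50 and Dmax (100 minus lowest % remaining).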

T1 sequence (Q92918 whole entry): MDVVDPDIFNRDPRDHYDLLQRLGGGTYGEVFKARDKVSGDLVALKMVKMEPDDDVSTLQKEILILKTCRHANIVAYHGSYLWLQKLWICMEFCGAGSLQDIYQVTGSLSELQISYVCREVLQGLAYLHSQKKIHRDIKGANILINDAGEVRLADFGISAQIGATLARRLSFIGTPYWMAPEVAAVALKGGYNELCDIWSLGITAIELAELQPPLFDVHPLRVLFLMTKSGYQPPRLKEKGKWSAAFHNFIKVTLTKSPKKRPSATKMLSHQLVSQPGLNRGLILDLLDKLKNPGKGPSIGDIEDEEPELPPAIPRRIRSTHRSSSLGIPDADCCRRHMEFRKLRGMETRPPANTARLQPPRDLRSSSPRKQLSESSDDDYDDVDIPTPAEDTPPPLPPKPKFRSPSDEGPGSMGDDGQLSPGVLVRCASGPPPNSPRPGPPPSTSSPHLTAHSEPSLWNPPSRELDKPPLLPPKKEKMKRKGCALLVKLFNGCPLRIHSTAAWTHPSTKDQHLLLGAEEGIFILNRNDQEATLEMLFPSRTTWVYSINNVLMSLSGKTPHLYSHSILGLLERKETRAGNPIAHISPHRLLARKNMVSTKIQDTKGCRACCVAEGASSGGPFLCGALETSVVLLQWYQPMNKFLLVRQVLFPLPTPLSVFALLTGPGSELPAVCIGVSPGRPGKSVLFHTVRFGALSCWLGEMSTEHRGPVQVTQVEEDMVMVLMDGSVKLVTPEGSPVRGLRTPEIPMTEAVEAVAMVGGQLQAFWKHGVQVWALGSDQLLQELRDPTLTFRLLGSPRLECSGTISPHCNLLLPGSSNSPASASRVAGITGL

SMILES	DC50 [µM]	Dmax [%]
CC(C)n1cnc2cc(-c3ccc4c(c3)N([C@H]3C[C@@H](N5CCCCC5)C3)C(=O)C43CCN(C(=O)C4CCN(C(=O)C5CCN(c6ccc(N7CCC(=O)NC7=O)cc6)CC5)CC4)CC3)nc(Nc3ccncc3F)c21 [Example 71, 1-[4-(4-{4-[(6-{4-[(3-Fluoropyridin-4-yl)amino]-3-(propan-2-yl)-3H-imidazo[4,5-c]pyridin-6-yl}-2-oxo-1-[(1S,3S)-3-(piperidin-1-yl)cyclobutyl]-1,2-dihydrospiro[indole-3,4′-piperidin]-1′-yl)carbonyl]piperidine-1-carbonyl}piperidin-1-yl)phenyl]-1,3-diazinane-2,4-dione]	< 0.1	70 to 85
CC(C)n1cnc2cc(-c3ccc4c(c3)N([C@H]3C[C@@H](N5CCCCC5)C3)C(=O)C43CCN(C(=O)C4CCN(C(=O)C5CCN(c6ccc(C7CCC(=O)NC7=O)cn6)CC5)CC4)CC3)nc(NC3CC3)c21 (stereo partly drawn) [Example 73, 3-(6-(4-(4-(6-(4-(cyclopropylamino)-3-isopropyl-3H-imidazo[4,5-c]pyridin-6-yl)-2-oxo-1-((1S,3S)-3-(piperidin-1-yl)cyclobutyl)spiro[indoline-3,4′-piperidine]-1′-carbonyl)piperidine-1-carbonyl)piperidin-1-yl)pyridin-3-yl)piperidine-2,6-dione]	0.1 to 0.5	70 to 85
CC(C)n1cnc2cc(-c3ccc4c(c3)N([C@H]3C[C@@H](N5CCCCC5)C3)C(=O)C43CCN(C(=O)C4CCN(C(=O)C5CCN(c6ccc(N7CCC(=O)NC7=O)cn6)CC5)CC4)CC3)nc(NC3CC3)c21 [Example 79, 1-(6-{4-[4-({6-[4-(cyclopropylamino)-3-(propan-2-yl)-3H-imidazo[4,5-c]pyridin-6-yl]-2-oxo-1-[(1S,3S)-3-(piperidin-1-yl)cyclobutyl]-1,2-dihydrospiro[indole-3,4′-piperidin]-1′-yl}carbonyl)piperidine-1-carbonyl]piperidin-1-yl}pyridin-3-yl)-1,3-diazinane-2,4-dione]	< 0.1	50 to 70
CC(C)n1cnc2cc(-c3ccc4c(c3)N([C@H]3C[C@@H](N5CCCCC5)C3)C(=O)C43CCN(C(=O)C4CCN(C(=O)C5CCN(c6ccc(N7CCC(=O)NC7=O)cn6)CC5)CC4)CC3)nc(Nc3ccccc3F)c21 [Example 80, 1-[6-(4-{4-[(6-{4-[(2-fluorophenyl)amino]-3-(propan-2-yl)-3H-imidazo[4,5-c]pyridin-6-yl}-2-oxo-1-[(1S,3S)-3-(piperidin-1-yl)cyclobutyl]-1,2-dihydrospiro[indole-3,4′-piperidin]-1′-yl)carbonyl]piperidine-1-carbonyl}piperidin-1-yl)pyridin-3-yl]-1,3-diazinane-2,4-dione]	< 0.1	70 to 85
CC(C)n1cnc2cc(-c3ccc4c(c3)N([C@H]3C[C@@H](N5CCCCC5)C3)C(=O)C43CCN(C(=O)C4CCN(C(=O)C5CCN(c6ccc(N7CCC(=O)NC7=O)cn6)CC5)CC4)CC3)nc(Nc3ccncc3F)c21 [Example 81, 1-[6-(4-{4-[(6-{4-[(3-Fluoropyridin-4-yl)amino]-3-(propan-2-yl)-3H-imidazo[4,5-c]pyridin-6-yl}-2-oxo-1-[(1S,3S)-3-(piperidin-1-yl)cyclobutyl]-1,2-dihydrospiro[indole-3,4′-piperidin]-1′-yl)carbonyl]piperidine-1-carbonyl}piperidin-1-yl)pyridin-3-yl]-1,3-diazinane-2,4-dione]	< 0.1	50 to 70
CC(C)n1cnc2cc(-c3ccc4c(c3)N([C@H]3C[C@@H](N5CCCCC5)C3)C(=O)C43CCN(C(=O)C4CCN(C(=O)C5CCN(c6ccc(C7CCC(=O)NC7=O)nc6)CC5)CC4)CC3)nc(NC3CC3)c21 (stereo partly drawn) [Example 84, 3-(5-{4-[4-({6-[4-(cyclopropylamino)-3-(propan-2-yl)-3H-imidazo[4,5-c]pyridin-6-yl]-2-Oxo-1-[(1S,3S)-3-(piperidin-1-yl)cyclobutyl]-1,2-dihydrospiro[indole-3,4′-piperidin]-1′-yl}carbonyl)piperidine-1-carbonyl]piperidin-1-yl}pyridin-2-yl)piperidine-2,6-dione]	0.1 to 0.5	50 to 70
CC(C)n1cnc2cc(-c3ccc4c(c3)N([C@H]3C[C@@H](N5CCCCC5)C3)C(=O)C43CCN(C(=O)C4CCN(C(=O)C5CCN(c6ccc(C7CCC(=O)NC7=O)nc6)CC5)CC4)CC3)nc(Nc3ccccc3F)c21 (stereo partly drawn) [Example 85, 3-[5-(4-{4-[(6-{4-[(2-fluorophenyl)amino]-3-(propan-2-yl)-3H-imidazo[4,5-c]pyridin-6-yl}-2-oxo-1-[(1S,3S)-3-(piperidin-1-yl)cyclobutyl]-1,2-dihydrospiro[indole-3,4′-piperidin]-1′-yl)carbonyl]piperidine-1-carbonyl}piperidin-1-yl)pyridin-2-yl]piperidine-2,6-dione]	< 0.1	70 to 85
CC(C)n1cnc2cc(-c3ccc4c(c3)N([C@H]3C[C@@H](N5CCCCC5)C3)C(=O)C43CCN(C(=O)C4CCN(C(=O)C5CCN(c6ncc(C7CCC(=O)NC7=O)cn6)CC5)CC4)CC3)nc(Nc3ccccc3F)c21 (stereo partly drawn) [Example 90, 3-(2-(4-(4-(6-(4-((2-fluorophenyl)amino)-3-isopropyl-3H-imidazo[4,5-c]pyridin-6-yl)-2-oxo-1-((1S,3S)-3-(piperidin-1-yl)cyclobutyl)spiro[indoline-3,4′-piperidine]-1′-carbonyl)piperidine-1-carbonyl)piperidin-1-yl)pyrimidin-5-yl)piperidine-2,6-dione]	< 0.1	70 to 85
CC(C)n1cnc2cc(-c3ccc4c(c3)N([C@H]3C[C@@H](N5CCCCC5)C3)C(=O)C43CCN(C(=O)C4CCN(C(=O)CC5CCN(c6ccc(C7CCC(=O)NC7=O)cn6)CC5)CC4)CC3)nc(Nc3ccccc3F)c21 (stereo partly drawn) [Example 92, 3-(6-(4-(2-(4-(6-(4-((2-fluorophenyl)amino)-3-isopropyl-3H-imidazo[4,5-c]pyridin-6-yl)-2-oxo-1-((1S,3S)-3-(piperidin-1-yl)cyclobutyl)spiro[indoline-3,4′-piperidine]-1′-carbonyl)piperidin-1-yl)-2-oxoethyl)piperidin-1-yl)pyridin-3-yl)piperidine-2,6-dione]	< 0.1	70 to 85
CC(C)n1cnc2cc(-c3ccc4c(c3)N([C@H]3C[C@@H](N5CCCCC5)C3)C(=O)C43CCN(C(=O)C4(C)CCN(C(=O)[C@H]5CC[C@H](Oc6ccc(N7CCC(=O)NC7=O)cn6)CC5)CC4)CC3)nc(Nc3ccccc3F)c21 [Example 108, 1-(6-{[(1R,4R)-4-{4-[(6-{4-[(2-fluorophenyl)amino]-3-(propan-2-yl)-3H-imidazo[4,5-c]pyridin-6-yl}-2-oxo-1-[(1S,3S)-3-(piperidin-1-yl)cyclobutyl]-1,2-dihydrospiro[indole-3,4′-piperidin]-1′-yl)carbonyl]-4-methylpiperidine-1-carbonyl}cyclohexyl]oxy}pyridin-3-yl)-1,3-diazinane-2,4-dione]	< 0.1	70 to 85
